Measurements as given in article PMC4623604, “Discovery of Small Molecules that Inhibit the Disordered Protein, p27^Kip1” (Scientific Reports, 2015).

Columns and labels:
p27-KID = biological target: T1, p27-KID (Homo sapiens, UniProt P46527); assay: NMR fragment screening and 2D 1H-15N HSQC chemical shift perturbation mapping; type: binding; set-up: key to Binding Group (site of chemical shift perturbations in p27-KID): Molecules in Group 1 bound to a localized region, F87YY89; molecules in Group 2 bound to this region as well as two others containing two W residues (W60 and W76); conditions: 2D 1H-15N HSQC, 100 μM 15N-p27-KID
T1 construct: 6xHis (N, cleaved yes); made in house; host or cells: E. coli (pET28a)
T1 sequence (P46527 22-105): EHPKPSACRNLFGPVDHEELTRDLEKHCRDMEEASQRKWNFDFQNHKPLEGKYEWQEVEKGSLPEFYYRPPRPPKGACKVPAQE
Source text: We used one-dimensional (1D) ^1H WaterLOGSY[35] and STD[36] […] Fragment molecules were selected from either a commercial library (1,100 compounds from the Ro3 collection, Maybridge/Thermo Fisher Scientific) or an in-house library of 1,222 compounds based on the “Rule of Three”[40] and other criteria (see Methods). […] Binding sites for these compounds were identified by titration into ^15N-p27-KID and analysis of two-dimensional (2D) ^1H-^15N HSQC spectra. […] We termed these molecules Groups 1 and 2, respectively (Fig. 1b,c); representative ^1H CSP histograms are shown in Fig. 1d,e, and ^15N CSPs are presented in Suppl. Fig. 2. Data for all other small molecules are shown in Suppl. Fig. 3.
Screening and validation NMR experiments were performed at 298 K (25 °C) using either a Varian Inova 600 MHz spectrometer equipped with a triple resonance (HCN) room temperature gradient probe or a Bruker Avance 600 MHz spectrometer equipped with TCI cryogenic gradient probe and a SampleJet sample changer. Fragment molecules were initially analyzed as pools of five molecules dissolved at 10 mM each in DMSO-D6. […] For initial fragment screening experiments, one-dimensional (1D) ^1H- and WaterLOGSY[35] NMR spectra were recorded for compound pools without and with protein. […] DMSO-D6 was added to maintain a constant concentration (2% vol/vol). […] Tryptophan and tyrosine, respectively, were titrated into ^15N-p27-KID (100 μM) up to 3 mM. Three-dimensional (3D) backbone triple-resonance experiments to establish resonance assignments for the p27 constructs were performed using the Bruker Avance 600 MHz spectrometer. […] Fig. 12b,c and d,e, respectively. 2D ^1H-^15N TROSY-HSQC NMR experiments with ^2H/^13C/^15N-p27-D2/Cdk2/cyclin A and SJ403 have been recorded at 308 K (35 °C). 2D ^1H-^15N HSQC experiments of representative fragment hits (1 mM of SJ319843, group 1 and SJ403, group 2, respectively) with ^15N-p21-KID (20 μM) were recorded at 298 K using a Bruker Avance 600 MHz spectrometer. NMR spectra were processed using Bruker Topspin software and analyzed using computer-aided resonance assignment (CARA) software.
Chemical shift perturbations are generally quantified as combined ^1H and ^15N chemical shift values. […] Thus, the use of a combined chemical shift values would mask the effects of compound binding. […] Thus, the assessment of statistical significance was based upon whether a particular CSP value was larger than, i) the experimental spectral resolution in the given dimension (^1H or ^15N) and ii) the quantity, Δδave + 2σ, for that dimension.

p27-D2/Cdk2/cyclin A = biological target: T2, p27-D2/Cdk2/cyclin A (Homo sapiens, UniProt P46527); assay: Cdk2/cyclin A kinase activity assay in the presence of p27-D2 (restoration of activity); type: biochemical
T2 construct: p27-D2 (residues 58-105 of human p27); 6xHis (N, cleaved yes); made in house; host or cells: E. coli for p27-D2
T2 sequence (P46527 58-105): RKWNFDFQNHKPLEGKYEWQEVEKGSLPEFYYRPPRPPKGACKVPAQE
Procedure: Figure 6 The small molecule SJ403 displaces p27-D2 from Cdk2/cyclin A and partially restores Cdk2 kinase activity. Analysis of Cdk2 kinase activity [within the Cdk2/cyclin A complex (200 pM) using Histone H1 as the substrate] in the presence of p27-D2 (200 nM) and varied concentrations of SJ403 (from 10 μM to 3 mM) (a) and varied concentrations of SJ403 alone (b). Cdk2 is partially active under the starting conditions in (a) and activity is enhanced through addition of SJ403. In the absence of p27-D2 (b), addition of SJ403 is associated with Cdk2 inhibition. All experiments were performed in triplicate and average values and the standard deviations of the means are shown.
Cdk2/Cyclin A (200 pM) was mixed with Histone H1 (15 μM; EMD Millipore), p27-D2 (200 nM) and varied amounts of lyophilized SJ403 and incubated overnight at 4 °C. The effect of the SJ403 compound on Cdk2 activity was determined by performing similar experiments in the absence of p27-D2. […] The reactions were quenched by addition of SDS-gel loading buffer (5 μL) and then analyzed by SDS-PAGE (10 μL). The gels were dried at 70 °C under vacuum and a phosphoimager (GE Healthcare, Piscataway, NJ) was used to quantify the ^32P-Histone H1 bands. IC50 values were determined by curve fitting using KaleidaGraph software. […]

Binding Group (site of chemical shift perturbations in p27-KID) (p27-KID): Group 2
Cdk2 kinase activity after titration of SJ403 (of full kinase activity) (p27-D2/Cdk2/cyclin A; 200 nM p27-D2, 200 pM Cdk2/cyclin A, SJ403 10 μM to 3 mM, start 13%): ~ 20%
increase in Cdk2 kinase activity (p27-D2/Cdk2/cyclin A; from 13% to ~20% of full activity, 200 nM p27-D2): > 50%
Structure (SMILES): CCn1c(C)c(C)n2c3c(=O)n(C)c(=O)n(C)c3nc12 [SJ403]
